According to patent EP1027880A2, “Use of quaternary ammonium compounds as antiperspirants” (Beiersdorf Aktiengesellschaft, priority 1999, dated 2000):
“And” between values parts separate entries of the source, which are not always exact repeats. Identical values can stand only once.

Test system: Schweißsekretion
Assay: Imprint method: sweat reduction on the inner forearm after topical application for several days, sauna sweating, silicone imprint with image analysis
Assay type: in vivo, menschlichen Probanden
Description: Der Nachweis der Wirksamkeit wurde an menschlichen Probanden mit Hilfe der sogenannten "Imprintmethode" geführt. Bei dieser Methode wird das zu untersuchende Material am Unterarm innen mehrere Tage hintereinander (topisch) angewendet, sodann begeben sich die Probanden in die Sauna zum Schwitzen. An der Untersuchungsstelle wird eine Silikonmasse aufgetragen, die während der Schwitzphase aushärtet. An den Stellen, an denen Schweisströpfchen austreten, bilden sich Abdrücke in der Silikonmasse, welche bildanalytisch ausgewertet werden können. Nach diesem Verfahren wurden zunächst die Wirkstoffe in wäßriger Lösung untersucht und sodann entsprechende kosmetische Zubereitungen.
Es wurden wässrige Lösungen aus Mecetroniumethylsulfat (MES) hergestellt und an 15 Probanden die Schweissreduktion mit Hilfe der Imprint-Methode am inneren Unterarm geprüft. Zum Vergleich wurde eine 10 %ige Aluminiumchlorhydrat-Lösung verwendet

Compound	Reduktion der Schweißsekretion (10 %ige comparison solution, 15 Probanden, inner forearm)	Reduktion der Schweißsekretion (in vivo)
Aluminiumchlorhydrat	93%	–
CCCCCCCCCCCCCCCC[N+](C)(C)CC [MES, N-Hexadecyl-N-ethyl-N,N-dimethylammoniumethylsulfat]	–	93% and 95%
